Assay: mn = molality of the nth substance listed, in mol/kg
Details: 101 kPa, Liquid; for electrical conductivity: Frequency=0.001 MHz, Alternating current cell with electrodes; for speed of sound: Frequency=2 MHz; for mass density: Pycnometric method

O=[N+]([O-])[O-].O=[N+]([O-])[O-].[Mg+2] [magnesium nitrate] + CO
Details | electrical conductivity [S/m] | mass density [kg/m3] | speed of sound [m/s] | viscosity [mPa·s]
273.15 K, m1 = 0.0082 | 0.1095 | – | 1187.6 | 0.8298
273.15 K, m1 = 0.0545 | 0.3036 | – | 1194.3 | 0.8885
273.15 K, m1 = 0.0667 | 0.3337 | – | 1197.6 | 0.9109
273.15 K, m1 = 0.1047 | 0.4393 | – | 1202.4 | 0.9548
273.15 K, m1 = 0.2776 | 0.8097 | – | 1220.4 | 1.129
273.15 K, m1 = 0.4024 | 1.002 | – | 1228.8 | 1.336
273.15 K, m1 = 0.4555 | 1.043 | – | 1237 | 1.4
273.15 K, m1 = 0.6276 | 1.207 | – | 1253.3 | 1.836
273.15 K, m1 = 0.782 | 1.31 | – | 1270.9 | 2.128
273.15 K, m1 = 0.881 | 1.334 | – | 1274.9 | 2.18
273.15 K, m1 = 0.9116 | 1.344 | – | 1279.9 | 2.329
273.15 K, m1 = 1.004 | 1.372 | – | 1293.4 | 2.559
273.15 K, m1 = 1.259 | 1.361 | – | 1315.8 | 3.717
273.15 K, m1 = 1.492 | 1.314 | – | 1340.4 | 4.748
273.15 K, m1 = 1.71 | 1.281 | – | 1360.5 | 6.086
273.15 K, m1 = 1.875 | 1.238 | – | 1368.6 | 7.175
278.15 K, m1 = 0.0082 | 0.1165 | – | 1171.2 | 0.7627
278.15 K, m1 = 0.0545 | 0.321 | – | 1178.6 | 0.8108
278.15 K, m1 = 0.0667 | 0.3538 | – | 1181.3 | 0.836
278.15 K, m1 = 0.1047 | 0.4655 | – | 1185.8 | 0.8755
278.15 K, m1 = 0.2776 | 0.8637 | – | 1203 | 1.029
278.15 K, m1 = 0.4024 | 1.073 | – | 1214.1 | 1.213
278.15 K, m1 = 0.4555 | 1.117 | – | 1222.1 | 1.273
278.15 K, m1 = 0.6276 | 1.3 | – | 1235.6 | 1.732
278.15 K, m1 = 0.782 | 1.417 | – | 1254.4 | 1.905
278.15 K, m1 = 0.881 | 1.447 | – | 1257.8 | 1.938
278.15 K, m1 = 0.9116 | 1.459 | – | 1263.2 | 2.079
278.15 K, m1 = 1.004 | 1.494 | – | 1277.2 | 2.278
278.15 K, m1 = 1.259 | 1.494 | – | 1298.8 | 3.26
278.15 K, m1 = 1.492 | 1.453 | – | 1324.8 | 4.119
278.15 K, m1 = 1.71 | 1.436 | – | 1343.7 | 5.244
278.15 K, m1 = 1.875 | 1.383 | – | 1352.5 | 6.178
283.15 K, m1 = 0.0082 | 0.1221 | – | 1158.5 | 0.7006
283.15 K, m1 = 0.0545 | 0.3368 | – | 1163.6 | 0.7465
283.15 K, m1 = 0.0667 | 0.3738 | – | 1164.3 | 0.775
283.15 K, m1 = 0.1047 | 0.4908 | – | 1168.9 | 0.8049
283.15 K, m1 = 0.2776 | 0.9168 | – | 1187.4 | 0.9437
283.15 K, m1 = 0.4024 | 1.143 | – | 1198.4 | 1.109
283.15 K, m1 = 0.4555 | 1.192 | – | 1204.7 | 1.158
283.15 K, m1 = 0.6276 | 1.394 | – | 1219.1 | 1.562
283.15 K, m1 = 0.782 | 1.528 | – | 1238.3 | 1.719
283.15 K, m1 = 0.881 | 1.561 | – | 1241 | 1.743
283.15 K, m1 = 0.9116 | 1.573 | – | 1247.8 | 1.866
283.15 K, m1 = 1.004 | 1.618 | – | 1261.1 | 2.041
283.15 K, m1 = 1.259 | 1.632 | – | 1282.7 | 2.891
283.15 K, m1 = 1.492 | 1.597 | – | 1308.1 | 3.619
283.15 K, m1 = 1.71 | 1.59 | – | 1327.3 | 4.554
283.15 K, m1 = 1.875 | 1.538 | – | 1335.4 | 5.339
288.15 K, m1 = 0.0082 | 0.1281 | – | 1141.9 | 0.6479
288.15 K, m1 = 0.0545 | 0.3616 | – | 1145.7 | 0.69
288.15 K, m1 = 0.0667 | 0.393 | – | 1147.2 | 0.7149
288.15 K, m1 = 0.1047 | 0.5164 | – | 1152.3 | 0.743
288.15 K, m1 = 0.2776 | 0.9691 | – | 1170.8 | 0.8665
288.15 K, m1 = 0.4024 | 1.214 | – | 1182.6 | 1.016
288.15 K, m1 = 0.4555 | 1.267 | – | 1188.5 | 1.06
288.15 K, m1 = 0.6276 | 1.489 | – | 1203 | 1.408
288.15 K, m1 = 0.782 | 1.639 | – | 1221.6 | 1.556
288.15 K, m1 = 0.881 | 1.678 | – | 1225.4 | 1.575
288.15 K, m1 = 0.9116 | 1.69 | – | 1231.2 | 1.679
288.15 K, m1 = 1.004 | 1.744 | – | 1245.4 | 1.828
288.15 K, m1 = 1.259 | 1.772 | – | 1266.8 | 2.586
288.15 K, m1 = 1.492 | 1.746 | – | 1292.2 | 3.198
288.15 K, m1 = 1.71 | 1.738 | – | 1311.9 | 3.978
288.15 K, m1 = 1.875 | 1.698 | – | 1320.1 | 4.642
293.15 K, m1 = 0.0082 | 0.1341 | – | 1123.3 | 0.6014
293.15 K, m1 = 0.0545 | 0.3807 | – | 1129 | 0.6412
293.15 K, m1 = 0.0667 | 0.412 | – | 1130.5 | 0.6621
293.15 K, m1 = 0.1047 | 0.5415 | – | 1134.7 | 0.6872
293.15 K, m1 = 0.2776 | 1.021 | – | 1154.7 | 0.7989
293.15 K, m1 = 0.4024 | 1.277 | – | 1165.8 | 0.9313
293.15 K, m1 = 0.4555 | 1.341 | – | 1172.6 | 0.9778
293.15 K, m1 = 0.6276 | 1.584 | – | 1187.3 | 1.271
293.15 K, m1 = 0.782 | 1.752 | – | 1205.7 | 1.415
293.15 K, m1 = 0.881 | 1.797 | – | 1212 | 1.429
293.15 K, m1 = 0.9116 | 1.811 | – | 1215.2 | 1.517
293.15 K, m1 = 1.004 | 1.873 | – | 1229.3 | 1.65
293.15 K, m1 = 1.259 | 1.917 | – | 1250.2 | 2.306
293.15 K, m1 = 1.492 | 1.9 | – | 1275.7 | 2.833
293.15 K, m1 = 1.71 | 1.902 | – | 1295.5 | 3.5
293.15 K, m1 = 1.875 | 1.866 | – | 1304 | 4.058
298.15 K, m1 = 0.0082 | 0.1401 | – | 1108.5 | 0.5595
298.15 K, m1 = 0.0545 | 0.3953 | – | 1115.7 | 0.5957
298.15 K, m1 = 0.0667 | 0.4305 | – | 1113.6 | 0.6148
298.15 K, m1 = 0.1047 | 0.5657 | – | 1118.5 | 0.6361
298.15 K, m1 = 0.2776 | 1.073 | – | 1138.2 | 0.7381
298.15 K, m1 = 0.4024 | 1.343 | – | 1149 | 0.8609
298.15 K, m1 = 0.4555 | 1.416 | – | 1155.9 | 0.8966
298.15 K, m1 = 0.6276 | 1.68 | – | 1171.1 | 1.146
298.15 K, m1 = 0.782 | 1.866 | – | 1188.8 | 1.287
298.15 K, m1 = 0.881 | 1.918 | – | 1195.8 | 1.301
298.15 K, m1 = 0.9116 | 1.933 | – | 1198.8 | 1.369
298.15 K, m1 = 1.004 | 2.005 | – | 1212.9 | 1.491
298.15 K, m1 = 1.259 | 2.065 | – | 1232.2 | 2.078
298.15 K, m1 = 1.492 | 2.06 | – | 1259.5 | 2.541
298.15 K, m1 = 1.71 | 2.073 | – | 1279.9 | 3.094
298.15 K, m1 = 1.875 | 2.039 | – | 1288.1 | 3.556
300.6 K, m1 = 0.1047 | – | 798.24 | – | –
300.7 K, m1 = 0.6276 | – | 850.07 | – | –
300.8 K, m1 = 0.881 | – | 871.54 | – | –
301.1 K, m1 = 1.492 | – | 934.05 | – | –

Reference: the NIST ThermoML archive (doi:10.1021/je800463k)
